# Measured values taken from ChEMBL document CHEMBL1132891, “Carbacyclic peptide mimetics as VCAM-VLA-4 antagonists” (Bioorg Med Chem Lett, 2000).
# Biological target: T1, Integrin alpha-4 (Homo sapiens, UniProt P13612)
# T1 sequence (P13612 whole entry): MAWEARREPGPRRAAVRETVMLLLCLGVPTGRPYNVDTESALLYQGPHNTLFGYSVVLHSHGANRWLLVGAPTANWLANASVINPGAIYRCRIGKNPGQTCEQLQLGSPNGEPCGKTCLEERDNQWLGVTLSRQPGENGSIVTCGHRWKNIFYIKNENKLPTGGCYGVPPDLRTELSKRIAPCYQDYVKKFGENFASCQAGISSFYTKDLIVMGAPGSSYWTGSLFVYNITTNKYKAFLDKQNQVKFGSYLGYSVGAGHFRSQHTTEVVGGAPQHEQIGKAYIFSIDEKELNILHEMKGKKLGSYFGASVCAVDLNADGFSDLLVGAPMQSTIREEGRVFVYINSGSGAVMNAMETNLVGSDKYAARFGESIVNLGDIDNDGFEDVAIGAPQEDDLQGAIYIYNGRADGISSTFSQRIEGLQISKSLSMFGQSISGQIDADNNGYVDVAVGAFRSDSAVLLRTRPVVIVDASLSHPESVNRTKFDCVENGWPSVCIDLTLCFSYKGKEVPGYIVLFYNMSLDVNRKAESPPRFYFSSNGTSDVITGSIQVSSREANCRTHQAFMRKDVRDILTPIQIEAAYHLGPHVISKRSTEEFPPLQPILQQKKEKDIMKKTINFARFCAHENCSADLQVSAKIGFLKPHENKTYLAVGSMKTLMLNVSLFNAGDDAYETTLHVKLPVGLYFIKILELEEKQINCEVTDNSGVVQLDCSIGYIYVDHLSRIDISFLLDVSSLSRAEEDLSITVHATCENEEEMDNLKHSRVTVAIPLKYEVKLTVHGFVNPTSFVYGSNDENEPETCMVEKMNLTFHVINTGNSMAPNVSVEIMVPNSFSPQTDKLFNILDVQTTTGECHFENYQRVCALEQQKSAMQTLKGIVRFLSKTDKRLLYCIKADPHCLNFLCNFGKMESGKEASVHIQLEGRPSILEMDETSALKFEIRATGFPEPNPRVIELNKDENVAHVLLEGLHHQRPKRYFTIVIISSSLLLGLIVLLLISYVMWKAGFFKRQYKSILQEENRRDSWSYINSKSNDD
# Experiment: Inhibitory concentration against VLA-4 receptor using human VCAM-VLA-4 binding assay
row,Structure (SMILES),IC50
1,N[C@@H](Cc1ccc(O)cc1)C(=O)NC1CCCCC[C@@H](C(=O)O)NC(=O)C2(CCCC2)CCNC1=O (stereo in doubt; 15b),750 nM
2,N[C@@H](Cc1ccc(O)cc1)C(=O)N/C1=C/CCCC[C@@H](C(=O)O)NC(=O)C2(CCCC2)CCNC1=O,330 nM
3,N[C@@H](Cc1ccc(O)cc1)C(=O)N[C@H]1CSSC[C@@H](C(=O)O)NC(=O)C2(CCCC2)CCNC1=O,0.5 nM
4,N[C@@H](Cc1ccc(O)cc1)C(=O)N/C1=C/CCC[C@@H](C(=O)O)NC(=O)C2(CCCC2)CCNC1=O,160 nM
5,N[C@@H](Cc1ccc(O)cc1)C(=O)NC1CCCCC[C@@H](C(=O)O)NC(=O)C2(CCCC2)CCNC1=O (stereo in doubt; 14b),550 nM
6,N[C@@H](Cc1ccc(O)cc1)C(=O)NC1CCCC[C@@H](C(=O)O)NC(=O)C2(CCCC2)CCNC1=O (stereo in doubt; 15a),89 nM
7,N[C@@H](Cc1ccc(O)cc1)C(=O)NC1CCCC[C@@H](C(=O)O)NC(=O)C2(CCCC2)CCNC1=O (stereo in doubt; 14a),44 nM
